Results taken from PubChem BioAssay AID504738 (National Center for Advancing Translational Sciences (NCATS), 2011).

Test system: kinetic aqueous solubility, PBS pH 7.4, LC-UV/MS
Experiment: Inhibitors of Bloom's syndrome helicase: Aqueous Profiling Assay
Source text: Survival of cells and the faithful propagation of the genome depend on elaborate mechanisms of detecting and repairing DNA damage. Treatment of advanced cancer relies on radiation therapy or chemotherapy, which kill cancer cells by causing extensive DNA damage. It is often found, that cancer cells develop resistance to therapy through enhanced activity of DNA repair functions; this has led to an increased interest in developing drugs that interfere with DNA repair, which could sensitize cancer cells to conventional therapy. Bloom syndrome helicase (BLM), is important in resolving abnormal DNA structures formed during replication or homologous recombination. Shutting down the expression of BLM leads to chromosomal instability and higher radiation sensitivity in cultured cells. This bioassay provides profiling data on aqueous kinetic solubility (PBS @ pH 7.4) of one of the lead compounds developed in the APE1 inhibitors project. NIH Chemical Genomics Center [NCGC] NIH Molecular Libraries Probe Production Centers Network [MLPCN] MLSCN Grant: MH087284 PI Name: Dr. Opher Gileadi, Structural Genomics Consortium, University of Oxford, UK
1. 8ul of reference and test compound stock solution were added to 392ul 100mM phosphate buffer (pH 7.4) 2. Sample tubes were shaken for 1 hr (1000 rpm) at room temperature 3. […] Concentration of the supernatant was determined by LC-UV or LC-MS/MS

O=C(Nc1ccc(F)c(C(F)(F)F)c1)Nc1nnc(-c2ccncc2)s1
solubility: 2 µM
